Results: patent publication US8871753B2, “Macrocyclic compounds and their use as kinase inhibitors” (Incyte Corporation, priority 2008, dated 2014)
Structures can show the parent of a compound that is named as a salt. Where two headings read alike, the source gives them in different places.

Tests used:
Assay type in all cases: biochemical
[1] = biological target: T1, human JAK1 (a.a. 837-1142) (Homo sapiens, UniProt P23458); test: In vitro JAK kinase assay (HTRF, phosphorylation of a biotinylated peptide), JAK1; conditions: read-out: JAK1 IC50
T1 construct: human JAK1 (a.a. 837-1142); His tag (N); made in house; host or cells: insect cells (baculovirus)
Outline: (§1)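 Phosphorylation of a biotinylated peptide by the JAK kinase domain, detected by HTRF with Eu-Py20 and SA-APC. ATP was 90 μM for JAK1, 30 μM for JAK2 and 3 μM for JAK3. Reactions ran 1 h at room temperature and were stopped with EDTA, followed by 40 min antibody binding.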

[2] = biological target: T2, human JAK2 (a.a. 828-1132) (Homo sapiens, UniProt O60674); test: In vitro JAK kinase assay (HTRF, phosphorylation of a biotinylated peptide), JAK2
T2 construct: JAK2 (a.a. 828-1132); His tag (N); made in house; host or cells: insect cells (baculovirus)
Outline: as §1

[3] = biological target: T3, human JAK3 (a.a. 781-1124) (Homo sapiens, UniProt P52333); test: In vitro JAK kinase assay (HTRF, phosphorylation of a biotinylated peptide), JAK3
T3 construct: JAK3 (a.a. 781-1124); His tag (N); made in house; host or cells: insect cells (baculovirus)
Outline: as §1

[4] = biological target: TYK2 (Homo sapiens, UniProt P29597); test: TYK2 kinase inhibition (Table A1)
[5] = biological target: T4, Recombinant Human Anaplastic Lymphoma Kinase (Homo sapiens, UniProt Q9UM73); test: ALK HTRF kinase assay
T4 construct: purchased Invitrogen, Carlsbad, Calif
Outline: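 TR-FRET read-out (Eu anti-pTyr antibody + streptavidin-APC) of biotin-peptide phosphorylation by recombinant human enzyme; IC50 by sigmoidal fit with top/bottom baselines and Hill slope.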

[6] = method AA1 (90 μM ATP) or AA2 (1000 μM ATP), not stated per value
[7] = method AA1 (30 μM ATP) or AA2 (1000 μM ATP), not stated per value
[8] = method AA1 (3 μM ATP) or AA2 (1000 μM ATP), not stated per value
[9] = compound at 500 nM or 1 mM, 90 μM ATP
[10] = Table B1, cells without percent sign

Sequence of TYK2 (P29597 whole entry): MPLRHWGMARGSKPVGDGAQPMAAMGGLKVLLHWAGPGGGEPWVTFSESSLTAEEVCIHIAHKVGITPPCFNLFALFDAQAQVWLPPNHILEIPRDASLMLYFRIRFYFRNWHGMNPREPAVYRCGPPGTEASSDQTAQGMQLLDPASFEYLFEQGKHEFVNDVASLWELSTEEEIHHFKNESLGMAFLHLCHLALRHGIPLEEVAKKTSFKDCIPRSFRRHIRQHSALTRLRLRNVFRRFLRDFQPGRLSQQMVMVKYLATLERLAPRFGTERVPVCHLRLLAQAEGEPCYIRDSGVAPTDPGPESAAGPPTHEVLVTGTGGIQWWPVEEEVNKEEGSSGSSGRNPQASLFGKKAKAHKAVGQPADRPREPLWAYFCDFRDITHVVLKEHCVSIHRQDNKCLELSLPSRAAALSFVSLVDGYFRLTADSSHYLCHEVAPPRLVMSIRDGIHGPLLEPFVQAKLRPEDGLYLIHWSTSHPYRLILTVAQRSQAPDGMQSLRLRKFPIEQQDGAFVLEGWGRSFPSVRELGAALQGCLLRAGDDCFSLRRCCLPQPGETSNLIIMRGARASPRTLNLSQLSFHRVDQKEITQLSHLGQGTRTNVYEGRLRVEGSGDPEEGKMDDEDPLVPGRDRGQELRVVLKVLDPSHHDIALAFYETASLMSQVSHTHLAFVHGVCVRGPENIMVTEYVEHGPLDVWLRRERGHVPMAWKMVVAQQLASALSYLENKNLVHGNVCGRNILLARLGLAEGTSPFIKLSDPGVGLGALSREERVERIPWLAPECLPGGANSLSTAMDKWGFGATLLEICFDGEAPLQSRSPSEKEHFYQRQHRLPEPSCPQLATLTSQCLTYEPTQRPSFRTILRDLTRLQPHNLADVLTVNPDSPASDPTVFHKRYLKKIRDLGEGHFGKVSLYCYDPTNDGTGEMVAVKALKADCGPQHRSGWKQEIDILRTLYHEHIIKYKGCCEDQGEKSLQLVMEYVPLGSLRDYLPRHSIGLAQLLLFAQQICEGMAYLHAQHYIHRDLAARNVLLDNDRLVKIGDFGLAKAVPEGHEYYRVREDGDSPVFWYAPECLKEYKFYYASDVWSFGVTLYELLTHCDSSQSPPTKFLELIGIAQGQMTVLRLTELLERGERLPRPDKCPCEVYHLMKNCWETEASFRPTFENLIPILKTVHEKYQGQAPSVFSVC
T3 sequence (P52333 781-1124): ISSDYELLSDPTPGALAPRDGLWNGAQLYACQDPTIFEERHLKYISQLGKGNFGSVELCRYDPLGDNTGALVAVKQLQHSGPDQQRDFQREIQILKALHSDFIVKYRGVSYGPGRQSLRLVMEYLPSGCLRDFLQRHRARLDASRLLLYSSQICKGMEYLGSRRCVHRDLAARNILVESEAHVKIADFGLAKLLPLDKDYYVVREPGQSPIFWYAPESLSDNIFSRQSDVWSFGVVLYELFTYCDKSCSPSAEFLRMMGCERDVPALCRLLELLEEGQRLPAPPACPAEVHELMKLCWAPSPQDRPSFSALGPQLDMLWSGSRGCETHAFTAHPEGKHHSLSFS
T1 sequence (P23458 849-1154): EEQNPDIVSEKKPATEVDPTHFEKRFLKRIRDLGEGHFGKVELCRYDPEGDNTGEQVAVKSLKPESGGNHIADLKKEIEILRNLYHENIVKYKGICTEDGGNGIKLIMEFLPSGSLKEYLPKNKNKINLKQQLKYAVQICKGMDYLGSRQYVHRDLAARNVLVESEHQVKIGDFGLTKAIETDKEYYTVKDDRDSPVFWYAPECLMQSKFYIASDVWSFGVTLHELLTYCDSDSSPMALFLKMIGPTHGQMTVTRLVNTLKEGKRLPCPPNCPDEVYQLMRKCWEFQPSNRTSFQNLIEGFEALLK
T2 sequence (O60674 828-1132): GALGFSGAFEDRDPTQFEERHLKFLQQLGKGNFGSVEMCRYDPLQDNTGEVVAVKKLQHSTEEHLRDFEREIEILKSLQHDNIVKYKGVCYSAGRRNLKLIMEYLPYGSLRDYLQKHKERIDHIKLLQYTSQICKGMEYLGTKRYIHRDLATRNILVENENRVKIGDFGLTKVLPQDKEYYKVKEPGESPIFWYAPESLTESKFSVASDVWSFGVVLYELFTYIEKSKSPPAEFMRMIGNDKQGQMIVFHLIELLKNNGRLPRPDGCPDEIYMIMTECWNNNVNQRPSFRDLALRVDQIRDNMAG
T4 sequence (Q9UM73 19-1620): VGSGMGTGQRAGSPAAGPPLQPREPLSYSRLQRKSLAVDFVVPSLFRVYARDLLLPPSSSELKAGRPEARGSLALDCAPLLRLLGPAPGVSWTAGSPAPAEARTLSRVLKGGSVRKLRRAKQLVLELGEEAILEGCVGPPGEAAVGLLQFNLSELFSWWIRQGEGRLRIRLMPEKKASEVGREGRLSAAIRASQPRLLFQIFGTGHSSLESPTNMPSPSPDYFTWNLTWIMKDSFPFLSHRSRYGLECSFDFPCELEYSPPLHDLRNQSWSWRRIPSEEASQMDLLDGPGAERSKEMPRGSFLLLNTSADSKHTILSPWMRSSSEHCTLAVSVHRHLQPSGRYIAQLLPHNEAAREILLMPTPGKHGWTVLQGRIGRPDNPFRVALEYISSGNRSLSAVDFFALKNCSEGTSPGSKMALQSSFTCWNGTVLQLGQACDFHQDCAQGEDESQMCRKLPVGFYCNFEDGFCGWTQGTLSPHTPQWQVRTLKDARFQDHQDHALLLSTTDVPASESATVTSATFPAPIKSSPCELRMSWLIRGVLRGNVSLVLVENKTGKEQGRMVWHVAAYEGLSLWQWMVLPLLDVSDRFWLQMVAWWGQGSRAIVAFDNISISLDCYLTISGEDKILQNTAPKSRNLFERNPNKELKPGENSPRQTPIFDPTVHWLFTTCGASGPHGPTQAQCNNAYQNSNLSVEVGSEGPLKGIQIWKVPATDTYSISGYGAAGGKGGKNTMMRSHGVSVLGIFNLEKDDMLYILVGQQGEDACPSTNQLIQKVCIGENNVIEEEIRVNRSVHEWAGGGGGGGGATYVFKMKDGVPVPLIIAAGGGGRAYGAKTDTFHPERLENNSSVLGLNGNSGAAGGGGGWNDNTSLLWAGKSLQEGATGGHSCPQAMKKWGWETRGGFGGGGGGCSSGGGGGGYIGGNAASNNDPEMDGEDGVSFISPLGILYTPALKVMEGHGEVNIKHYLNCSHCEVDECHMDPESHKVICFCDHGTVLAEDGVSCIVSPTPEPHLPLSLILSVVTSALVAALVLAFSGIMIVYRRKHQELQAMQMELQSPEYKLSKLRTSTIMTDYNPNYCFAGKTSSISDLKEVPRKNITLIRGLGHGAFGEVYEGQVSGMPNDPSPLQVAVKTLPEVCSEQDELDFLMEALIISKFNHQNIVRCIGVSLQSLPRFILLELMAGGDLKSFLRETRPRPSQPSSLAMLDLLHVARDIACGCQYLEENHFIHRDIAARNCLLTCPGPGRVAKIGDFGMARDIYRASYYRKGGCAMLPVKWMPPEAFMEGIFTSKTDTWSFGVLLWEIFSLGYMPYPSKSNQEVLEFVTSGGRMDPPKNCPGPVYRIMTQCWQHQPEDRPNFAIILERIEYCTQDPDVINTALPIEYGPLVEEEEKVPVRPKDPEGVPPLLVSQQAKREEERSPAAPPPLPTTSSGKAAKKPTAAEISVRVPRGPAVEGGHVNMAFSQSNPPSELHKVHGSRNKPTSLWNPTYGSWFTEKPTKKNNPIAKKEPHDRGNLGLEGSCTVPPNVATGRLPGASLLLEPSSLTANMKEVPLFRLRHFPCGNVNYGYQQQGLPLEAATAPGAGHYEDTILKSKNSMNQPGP

Row | SMILES | IC50 [1, 6] [nM] | IC50 [2, 7] [nM] | IC50 [3, 8] [nM] | IC50 [4] [nM] | ALK % of inhibition at a concentration of 500 nM or 1 mM [5, 9] [%] | IC50 ([1]; Table B1) [nM] | IC50 ([2]; Table B1) [nM] | IC50 ([3]; Table B1) [nM] | IC50 ([4]; Table B1) [nM] | IC50 [5, 10] [nM] | further results
1 | CN(C)S(=O)(=O)N1CCC(CC(=O)Nc2ccc3cc2CCc2cccc(c2)Nc2ncc(Cl)c(n2)N3)CC1 [Example A81, N-[6-Chloro-2,4,8,22-tetraazatetracyclo[14.3.1.1(3,7).1(9,13)]docosa-1(20),3(22),4,6,9(21),10,12,16,18-nonaen-12-yl]-2-{1-[(dimethylamino)sulfonyl]piperidin-4-yl}acetamide trifluoroacetate] | 4.7 | 1.6 | 24 | 4.3 | 29 | – | – | – | – | – | –
2 | N#Cc1ccnc(N2CCC(CC(=O)Nc3ccc4cc3CCc3cncc(c3)Nc3ncc(Cl)c(n3)N4)CC2)c1 [Example A178, N-[6-Chloro-2,4,8,18,22-pentaazatetracyclo[14.3.1.1(3,7).1(9,13)]docosa-1(20),3(22),4,6,9(21),10,12,16,18-nonaen-12-yl]-2-[1-(4-cyanopyridin-2-yl)piperidin-4-yl]acetamide tris(trifluoroacetate)] | 68 | > 200 | > 200 | > 200 | 26 | – | – | – | – | – | –
3 | COC(=O)c1cc2cc(c1)OCCSc1cccc(c1)Nc1nc(ncc1Cl)N2 [Example D43, Methyl 6-chloro-17-oxa-14-thia-2,4,8,24-tetraazatetracyclo[16.3.1.1(3,7).1(9,13)]tetracosa-1(22),3(24),4,6,9(23),10,12,18,20-nonaene-20-carboxylate trifluoroacetate] | – | – | – | – | – | – | – | – | – | – | IC50 ([1]; Table D1): 2.9 nM; IC50 ([2]; Table D1): 5.3 nM; IC50 ([3]; Table D1): 66 nM; IC50 ([4]; Table D1): 37 nM; IC50 ([5]; Table D1, 90 μM ATP): 390 nM
4 | CC(=O)N1CCN(CC(=O)Nc2ccc3cc2CCc2cncc(c2)Nc2ncc(Cl)c(n2)N3)CC1 [Example A127, 2-(4-Acetylpiperazin-1-yl)-N-[6-chloro-2,4,8,18,22-pentaazatetracyclo[14.3.1.1(3,7).1(9,13)]docosa-1(20),3(22),4,6,9(21),10,12,16,18-nonaen-12-yl]acetamide tris(trifluoroacetate)] | 31 | 64 | 350 | 59 | 15 | – | – | – | – | – | –
5 | O=C(CC1CCN(c2ccncc2)CC1)Nc1ccc2cc1CCc1cncc(c1)Nc1ncc(Cl)c(n1)N2 [Example A242, N-[6-Chloro-2,4,8,18,22-pentaazatetracyclo[14.3.1.1(3,7).1(9,13)]docosa-1(20),3(22),4,6,9(21),10,12,16,18-nonaen-12-yl]-2-(1-pyridin-4-ylpiperidin-4-yl)acetamide tris(trifluoroacetate)] | 40 | > 400 | > 400 | > 400 | 31 | – | – | – | – | – | –
6 | O=C(Nc1ccc2cc1CCc1cncc(c1)Nc1ncc(Cl)c(n1)N2)N[C@H]1CCN(C(=O)c2ccno2)C1 [Example B271, N-[6-Chloro-2,4,8,18,22-pentaazatetracyclo[14.3.1.1(3,7).1(9,13)]docosa-1(20),3(22),4,6,9(21),10,12,16,18-nonaen-12-yl]-N′-[(3S)-1-(isoxazol-5-ylcarbonyl)pyrrolidin-3-yl]urea bis(trifluoroacetate)] | – | – | – | – | – | 8.7 | 440 | > 10000 | 847 | – | ALK % of inhibition at a concentration of 500 nM or 1 mM ([5]; compound at a concentration of 500 nM or 1 mM (not specified), cells shown as percentage): 10%
7 | O=C(Nc1cc2cc(c1)Nc1nc(ncc1Cl)Nc1cccc(c1)CC2)c1ccccn1 [Example B201, N-[6-Chloro-2,4,8,22-tetraazatetracyclo[14.3.1.1(3,7).1(9,13)]docosa-1(20),3(22),4,6,9(21),10,12,16,18-nonaen-11-yl]pyridine-2-carboxamide trifluoroacetate] | – | – | – | – | – | 119 | 410 | 454 | > 1000 | > 10000 | –
8 | O=C(Nc1ccc2cc1CCc1cccc(c1)Nc1ncc(Cl)c(n1)N2)c1ccccc1 [Example B29, N-[6-Chloro-2,4,8,22-tetraazatetracyclo[14.3.1.1(3,7).1(9,13)]docosa-1(20), 3(22),4,6,9(21),10,12,16,18-nonaen-12-yl]benzamide trifluoroacetate] | – | – | – | – | – | 0.24 | 0.48 | 3.3 | 1.7 | 96 | –
9 | CCS(=O)(=O)Nc1ccc2cc1CCc1cccc(c1)Nc1ncc(Cl)c(n1)N2 [Example B141, N-[6-Chloro-2,4,8,22-tetraazatetracyclo[14.3.1.1(3,7).1(9,13)]docosa-1(20), 3(22),4,6,9(21),10,12,16,18-nonaen-12-yl]ethanesulfonamide trifluoroacetate] | – | – | – | – | – | 0.8 | 0.2 | 3 | 1.2 | 740 | –
10 | CC(C)(C)NC(=O)Nc1ccc2cc1CCc1cccc(c1)Nc1ncc(Cl)c(n1)N2 [Example B87, N-(tert-Butyl)-N′-[6-chloro-2,4,8,22-tetraazatetracyclo[14.3.1.1(3,7).1(9,13)]docosa-1(20),3(22),4,6,9(21),10,12,16,18-nonaen-12-yl]urea trifluoroacetate] | – | – | – | – | – | 5.3 | 4.5 | 42 | 16 | > 1000 | –
11 | Clc1cnc2nc1Nc1ccc(-c3cn[nH]c3)c(c1)CCc1cncc(c1)N2 [Example B350, 6-Chloro-12-(1H-pyrazol-4-yl)-2,4,8,18,22-pentaazatetracyclo[14.3.1.1(3,7).1(9,13)]docosa-1(20),3(22),4,6,9(21),10,12,16,18-nonaene tris(trifluoroacetate)] | – | – | – | – | – | 90 | 66 | > 400 | 244 | – | ALK % of inhibition at a concentration of 500 nM or 1 mM ([5]; percentage inhibition of the example compound at a concentration of 500 nM or 1 mM (not specified which)): 58%
12 | Cc1noc(C)c1S(=O)(=O)N1CCC(CC(=O)Nc2ccc3cc2CCc2cncc(c2)Nc2ncc(Cl)c(n2)N3)CC1 [Example A231, N-[6-chloro-2,4,8,18,22-pentaazatetracyclo[14.3.1.1(3,7).1(9,13)]docosa-1(20),3(22),4,6,9(21),10,12,16,18-nonaen-12-yl]-2-{1-[(3,5-dimethylisoxazol-4-yl)sulfonyl]piperidin-4-yl}acetamide bis(trifluoroacetate)] | 9.7 | 85 | > 400 | 98 | 46 | – | – | – | – | – | –
13 | O=C(NCc1ccncc1)c1cc2cc(c1)Nc1nc(ncc1Cl)Nc1cccc(c1)CC2 [Example B11, 6-Chloro-N-(pyridin-4-ylmethyl)-2,4,8,22-tetraazatetracyclo[14.3.1.1(3,7).1(9,13)]docosa-1(20),3(22),4,6,9(21),10,12,16,18-nonaene-11-carboxamide bis(trifluoroacetate)] | – | – | – | – | – | 97 | 92 | 144 | 275 | 2370 | –
14 | Cc1cnc2nc1Nc1cccc(c1)CCc1cccc(c1)N2 [Example B2, 6-Methyl-2,4,8,22-tetraazatetracyclo[14.3.1.1(3,7).1(9,13)]docosa-1(20),3(22),4,6,9(21),10,12,16,18-nonaene trifluoroacetate] | – | – | – | – | – | 11 | 8.4 | 277 | 19 | > 1000 | –
